According to PubChem BioAssay (NCI):
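Tested at 5 concentrations; 48 h exposure; 96-well plates; endpoints linearly interpolated, else capped at highest concentration. GI50 marks 50% less growth. TGI is the concentration that stops growth completely.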

What was measured:
Test in all cases: growth of human tumour cells (NCI), 48 h
BT-549 breast = tested on: BT-549 breast
HL-60(TB) leukemia = tested on: HL-60(TB) leukemia
HOP-92 NSCLC = tested on: HOP-92 NSCLC
IGROV1 ovarian = tested on: IGROV1 ovarian
M14 melanoma = tested on: M14 melanoma
MDA-N = tested on: MDA-N
NCI/ADR-RES ovarian = tested on: NCI/ADR-RES ovarian
OVCAR-8 ovarian = tested on: OVCAR-8 ovarian
RPMI-8226 leukemia = tested on: RPMI-8226 leukemia
SN12C renal = tested on: SN12C renal
CCRF-CEM leukemia = tested on: CCRF-CEM leukemia

## CN1CC(c2ccccc2)C(O)(C2(c3ccccc3)CN(C)CC(c3ccccc3)C2=O)C(c2ccccc2)C1 (stereo not given)
BT-549 breast
  TGI: > 100 µM
HL-60(TB) leukemia
  TGI: > 100 µM
HOP-92 NSCLC
  TGI: > 100 µM
IGROV1 ovarian
  TGI: > 100 µM
M14 melanoma
  TGI: > 100 µM
MDA-N
  TGI: > 100 µM
NCI/ADR-RES ovarian
  TGI: > 100 µM
OVCAR-8 ovarian
  TGI: > 100 µM
RPMI-8226 leukemia
  TGI: > 100 µM
SN12C renal
  TGI: > 100 µM

## CC[C@@]1(OC(=O)CN(C)C)C(=O)OCc2c1cc1n(c2=O)Cc2cc3c(N)cccc3nc2-1
BT-549 breast
  GI50: 0.0634 µM
  TGI: > 100 µM
CCRF-CEM leukemia
  GI50: < 0.01 µM
  TGI: 0.025 µM
HL-60(TB) leukemia
  GI50: 0.0226 µM
  TGI: 10.7 µM
HOP-92 NSCLC
  GI50: 0.0239 µM
  TGI: 0.785 µM
IGROV1 ovarian
  GI50: 0.0609 µM
  TGI: 0.421 µM
M14 melanoma
  GI50: 0.0178 µM
  TGI: 0.128 µM
NCI/ADR-RES ovarian
  GI50: 0.034 µM
  TGI: 2.41 µM
OVCAR-8 ovarian
  GI50: 0.0272 µM
  TGI: 0.488 µM
RPMI-8226 leukemia
  GI50: 0.0636 µM
  TGI: 0.541 µM

## O=C(O)C1OC1C(=O)O (stereo not given)
BT-549 breast
  TGI: > 100 µM
HOP-92 NSCLC
  TGI: > 100 µM
IGROV1 ovarian
  TGI: > 100 µM
M14 melanoma
  TGI: > 100 µM
MDA-N
  TGI: > 100 µM
NCI/ADR-RES ovarian
  TGI: > 100 µM
OVCAR-8 ovarian
  TGI: > 100 µM
RPMI-8226 leukemia
  TGI: > 100 µM
SN12C renal
  TGI: > 100 µM

## OC(c1ccc(Cl)cc1)(c1ccc(Cl)cc1)c1cncnc1
BT-549 breast
  TGI: 42 µM
CCRF-CEM leukemia
  TGI: 54.1 µM
HOP-92 NSCLC
  TGI: 31.2 µM
M14 melanoma
  TGI: 32.8 µM
MDA-N
  TGI: 37.7 µM
NCI/ADR-RES ovarian
  TGI: 74.8 µM
OVCAR-8 ovarian
  TGI: 54.8 µM
RPMI-8226 leukemia
  TGI: 85.3 µM
SN12C renal
  TGI: 80.3 µM

## O=S(=O)(O)c1cc(S(=O)(=O)O)c2cc(N=Nc3c(O)ccc4ccccc34)ccc2c1
BT-549 breast
  TGI: > 100 µM
CCRF-CEM leukemia
  TGI: > 100 µM
HL-60(TB) leukemia
  TGI: > 100 µM
HOP-92 NSCLC
  TGI: > 100 µM
IGROV1 ovarian
  TGI: > 100 µM
M14 melanoma
  TGI: > 100 µM
MDA-N
  TGI: > 100 µM
NCI/ADR-RES ovarian
  TGI: > 100 µM
OVCAR-8 ovarian
  TGI: > 100 µM
RPMI-8226 leukemia
  TGI: > 100 µM
SN12C renal
  TGI: > 100 µM

## O=C(O)C(O)(c1ccc(-c2ccccc2)cc1)c1ccc(-c2ccccc2)cc1
BT-549 breast
  TGI: 42.7 µM
HL-60(TB) leukemia
  TGI: 49.7 µM
HOP-92 NSCLC
  TGI: 41.4 µM
IGROV1 ovarian
  TGI: 57.3 µM
M14 melanoma
  TGI: > 100 µM
MDA-N
  TGI: 34.5 µM
NCI/ADR-RES ovarian
  TGI: 61.2 µM
OVCAR-8 ovarian
  TGI: > 100 µM
RPMI-8226 leukemia
  TGI: > 100 µM
SN12C renal
  TGI: 60.7 µM

## Clc1ccc(C2CC(c3cccc(Nc4ccncc4)c3)=NN2c2ccc(Cl)cc2)cc1 (stereo not given)
HOP-92 NSCLC
  GI50: 1.38 µM
  TGI: 2.79 µM
IGROV1 ovarian
  GI50: 1.65 µM
  TGI: 3.18 µM

## COc1cc2c(cc1OC)C1c3ccccc3CCN1CCC2 (stereo not given)
BT-549 breast
  TGI: 81.4 µM
CCRF-CEM leukemia
  TGI: > 100 µM
HL-60(TB) leukemia
  TGI: > 100 µM
IGROV1 ovarian
  TGI: > 100 µM
M14 melanoma
  TGI: > 100 µM
MDA-N
  TGI: > 100 µM
NCI/ADR-RES ovarian
  TGI: > 100 µM
OVCAR-8 ovarian
  TGI: > 100 µM
RPMI-8226 leukemia
  TGI: > 100 µM
SN12C renal
  TGI: > 100 µM

## CCOC(=O)c1nc2ccccc2n(CC)c1=O
BT-549 breast
  TGI: > 100 µM
CCRF-CEM leukemia
  TGI: > 100 µM
HL-60(TB) leukemia
  TGI: > 100 µM
HOP-92 NSCLC
  TGI: > 100 µM
IGROV1 ovarian
  TGI: > 100 µM
M14 melanoma
  TGI: > 100 µM
MDA-N
  TGI: > 100 µM
NCI/ADR-RES ovarian
  TGI: > 100 µM
OVCAR-8 ovarian
  TGI: > 100 µM
RPMI-8226 leukemia
  TGI: > 100 µM
SN12C renal
  TGI: > 100 µM

## COc1ccc(NC(=S)NNC(=O)c2nsc3ccccc23)cc1
HL-60(TB) leukemia
  TGI: 60.8 µM
HOP-92 NSCLC
  TGI: 83.5 µM
IGROV1 ovarian
  TGI: > 100 µM
M14 melanoma
  TGI: 36.7 µM
OVCAR-8 ovarian
  TGI: > 100 µM
RPMI-8226 leukemia
  TGI: > 100 µM
SN12C renal
  TGI: > 100 µM

## Nc1c(OCC(=O)O)ccc2cc(S(=O)(=O)O)ccc12
BT-549 breast
  TGI: > 100 µM
CCRF-CEM leukemia
  TGI: > 100 µM
HL-60(TB) leukemia
  TGI: > 100 µM
IGROV1 ovarian
  TGI: > 100 µM
M14 melanoma
  TGI: > 100 µM
MDA-N
  TGI: > 100 µM
NCI/ADR-RES ovarian
  TGI: > 100 µM
OVCAR-8 ovarian
  TGI: > 100 µM
RPMI-8226 leukemia
  TGI: > 100 µM
SN12C renal
  TGI: > 100 µM

## c1ccc2c(c1)OCCc1cn[nH]c1-2
CCRF-CEM leukemia
  TGI: > 100 µM
HL-60(TB) leukemia
  TGI: > 100 µM
HOP-92 NSCLC
  TGI: > 100 µM
IGROV1 ovarian
  TGI: > 100 µM
NCI/ADR-RES ovarian
  TGI: > 100 µM
OVCAR-8 ovarian
  TGI: > 100 µM
SN12C renal
  TGI: > 100 µM

## CO/N=C(/C)c1cccc(Nc2nc3ccc(Cl)cc3c3[nH]c4ccccc4c23)c1
CCRF-CEM leukemia
  TGI: > 100 µM
HL-60(TB) leukemia
  TGI: 32 µM
HOP-92 NSCLC
  TGI: 21 µM
IGROV1 ovarian
  TGI: 29.4 µM
M14 melanoma
  TGI: 20.7 µM
MDA-N
  TGI: 24.3 µM
NCI/ADR-RES ovarian
  TGI: 33 µM
OVCAR-8 ovarian
  TGI: 23.1 µM
RPMI-8226 leukemia
  TGI: 17 µM
SN12C renal
  TGI: 25.9 µM

## O=NN1C(c2ccccc2)C2CCCC(C2=O)C1c1ccccc1 (stereo not given)
CCRF-CEM leukemia
  TGI: > 83.6 µM
HL-60(TB) leukemia
  TGI: 44.7 µM
HOP-92 NSCLC
  TGI: 55.6 µM
IGROV1 ovarian
  TGI: > 92.7 µM
NCI/ADR-RES ovarian
  TGI: > 89.6 µM
OVCAR-8 ovarian
  TGI: > 100 µM
RPMI-8226 leukemia
  TGI: 48.4 µM
SN12C renal
  TGI: 69.9 µM

## CCCCN(CCCC)CCC(O)c1cc(-c2ccc(C(F)(F)F)cc2)nc(-c2ccc(C(F)(F)F)cc2)c1 (stereo not given)
CCRF-CEM leukemia
  TGI: > 100 µM
HL-60(TB) leukemia
  TGI: > 100 µM
HOP-92 NSCLC
  TGI: > 100 µM
IGROV1 ovarian
  TGI: > 100 µM
M14 melanoma
  TGI: > 100 µM
MDA-N
  TGI: > 100 µM
NCI/ADR-RES ovarian
  TGI: > 100 µM
OVCAR-8 ovarian
  TGI: > 100 µM
RPMI-8226 leukemia
  TGI: > 100 µM
SN12C renal
  TGI: > 100 µM

## O=C(Nn1c(-c2cccs2)nc2ccc(I)cc2c1=O)c1ccccc1
BT-549 breast
  TGI: 51.9 µM
CCRF-CEM leukemia
  GI50: 38.5 µM
  TGI: > 100 µM
HL-60(TB) leukemia
  GI50: 33.7 µM
  TGI: 99.7 µM
HOP-92 NSCLC
  TGI: 51.7 µM
IGROV1 ovarian
  TGI: 82.6 µM
M14 melanoma
  TGI: > 100 µM
MDA-N
  TGI: > 100 µM
NCI/ADR-RES ovarian
  TGI: > 100 µM
OVCAR-8 ovarian
  TGI: > 100 µM
RPMI-8226 leukemia
  GI50: 22.8 µM
  TGI: 58.1 µM
SN12C renal
  TGI: > 100 µM

## CC1C2CCC3C(O)C2(CC(O)C2(O)C1CC(O)C2(C)C)CC3(C)O (stereo not given)
BT-549 breast
  TGI: > 100 µM
CCRF-CEM leukemia
  TGI: > 100 µM
HL-60(TB) leukemia
  TGI: > 100 µM
HOP-92 NSCLC
  TGI: > 100 µM
IGROV1 ovarian
  TGI: > 100 µM
M14 melanoma
  TGI: > 100 µM
MDA-N
  TGI: > 100 µM
NCI/ADR-RES ovarian
  TGI: > 100 µM
OVCAR-8 ovarian
  TGI: > 100 µM
SN12C renal
  TGI: > 100 µM

## COc1ccc(C(=O)NC2=C(Cl)C(=O)c3ccccc3C2=O)cc1
BT-549 breast
  TGI: 9.64 µM
CCRF-CEM leukemia
  TGI: > 100 µM
HL-60(TB) leukemia
  TGI: > 100 µM
HOP-92 NSCLC
  TGI: 2.73 µM
IGROV1 ovarian
  TGI: 12.9 µM
M14 melanoma
  TGI: 6.95 µM
MDA-N
  TGI: 10.7 µM
NCI/ADR-RES ovarian
  TGI: 9.05 µM
OVCAR-8 ovarian
  TGI: 14.4 µM
SN12C renal
  TGI: 9.46 µM

## NC1C=NNC1=O (stereo not given)
CCRF-CEM leukemia
  TGI: > 100 µM
HL-60(TB) leukemia
  TGI: > 100 µM
IGROV1 ovarian
  TGI: > 100 µM
M14 melanoma
  TGI: > 100 µM
OVCAR-8 ovarian
  TGI: > 100 µM
RPMI-8226 leukemia
  TGI: > 100 µM
SN12C renal
  TGI: > 100 µM

## COC1CC(OC2CCC3(C)C(=CCC4C3C(OC(C)=O)C(OC(=O)CC(C)C)C3(C)C(C(C)=O)CCC43O)C2)OC(C)C1OC1CC(OC)C(OC2CC(OC)C(OC3OC(C)C(O)C(OC)C3O)C(C)O2)C(C)O1 (stereo not given)
BT-549 breast
  TGI: 69.6 µM
CCRF-CEM leukemia
  TGI: 72.6 µM
HL-60(TB) leukemia
  TGI: 74.5 µM
HOP-92 NSCLC
  TGI: 57.6 µM
IGROV1 ovarian
  TGI: > 100 µM
M14 melanoma
  TGI: > 100 µM
MDA-N
  TGI: > 100 µM
OVCAR-8 ovarian
  TGI: > 100 µM
RPMI-8226 leukemia
  TGI: 45.8 µM
SN12C renal
  TGI: > 100 µM

## C[C@]12Cc3cnc(-c4ccccc4)nc3C[C@@H]1CC[C@@H]1[C@@H]2CC[C@@]2(C)[C@H]1CC[C@]2(C)O
BT-549 breast
  TGI: 54.6 µM
CCRF-CEM leukemia
  TGI: 77.7 µM
HL-60(TB) leukemia
  TGI: > 100 µM
HOP-92 NSCLC
  TGI: 54.4 µM
IGROV1 ovarian
  TGI: 63.3 µM
M14 melanoma
  TGI: 32.5 µM
MDA-N
  TGI: 48.9 µM
NCI/ADR-RES ovarian
  TGI: 57 µM
OVCAR-8 ovarian
  TGI: 40.4 µM
RPMI-8226 leukemia
  TGI: 55 µM
SN12C renal
  TGI: 57.3 µM

## CN(CCO)Cc1ncccc1O
BT-549 breast
  TGI: > 100 µM
CCRF-CEM leukemia
  TGI: > 100 µM
HL-60(TB) leukemia
  TGI: > 100 µM
HOP-92 NSCLC
  TGI: > 100 µM
IGROV1 ovarian
  TGI: > 100 µM
M14 melanoma
  TGI: > 100 µM
NCI/ADR-RES ovarian
  TGI: > 100 µM
OVCAR-8 ovarian
  TGI: > 100 µM
RPMI-8226 leukemia
  TGI: > 100 µM
